Laboratory results taken from paper PMC7591920, “A protein tertiary structure mimetic modulator of the Hippo signalling pathway” (Nature Communications, 2020).
Bridge positions count the residues as written; N and C are the ends. Peptide text beside a SMILES is read from it.

How the values were obtained:
YAP–TEAD interaction = assay: Proximity ligation assay (PLA) in RKO cells; type: cell-based; settings: 24 h incubation, c = 30 µM
Procedure: Ca. 5000 RKO cells were seeded per well in black 96-well plates with glass bottom (#5241-20, MoBiTec) and treated with the peptides or DMSO as vehicle control. After 24 h, the cells were fixed for 10 min using 4% paraformaldehyde (#UN2209, AppliChem) in PBS prior to permeabilization with 0.1% Triton X-100 (#39795.02, Serva) in PBS for 10 min. […] The cells were treated with the corresponding PLA probes (donkey anti-rabbit PLUS, #DUO92002, dilution 1:5; donkey anti-mouse MINUS, #DUO92004, dilution 1:5, Sigma-Aldrich) and with the Duolink In Situ Detection Orange Kit (#DUO92007, Sigma-Aldrich) for ligation and amplification according to the manufacturer's instructions. Finally, the cells were treated with 1 μg mL^-1 DAPI (#D9542, Sigma-Aldrich) to stain nuclei for further microscopy analysis. Images were acquired using a Zeiss Observer Z1 microscope with an 63× oil objective. Picture data were analysed by the ImageJ “analyze particles” macro to count PLA spots per cell. Ten pictures were counted for each condition per experiment. Statistical analysis was performed using Student's paired t test.

RKO cells [1] = assay: Sub-cellular (cytoplasmic, nuclear) peptide concentration in RKO cells by UPLC-MS; settings: for Sub-cellular drug content, Cytoplasm, Measured concentration / Sub-cellular drug content, Cytoplasm, nMol / Sub-cellular drug content, Nuclear, Measured concentration / Sub-cellular drug content, Nuclear, nMol / Sub-cellular drug content, Cytoplasm, pMol.mg-1 / Sub-cellular drug content, Nuclear, pMol.mg-1: 25 µM compound, n = 2; for Sub-cellular drug content, Cytoplasm, pMol.mg-1 / Sub-cellular drug content, Nuclear, pMol.mg-1: per mg protein; for Cytoplasmic concentration of peptide: cytoplasmic fraction; for Nuclear concentration of peptide: nuclear fraction; for Cytoplasmic concentration, raw data / Nuclear concentration, raw data: sheet Figure 3c, 25 µM unlabelled peptide; for Intracellular concentration: mass spectrometry
Procedure: (§1) Peptides were incubated in RKO cells (ATCC, #CRL-2577) as follows: Experiment 1: RKO cells were incubated in 25 µM compound for 90 min and 24 h. Experiment 2: RKO cells were incubated in 25 µM for 30 min or 72 h. Following peptide incubation, the cells were washed twice with PBS, trypsinized and pelleted. The pellets were lysed in RIPA buffer (Perkin Elmer) for total lysis, or CelLytic NuCLEAR Extraction Kit (SIGMA) for subcellular fractionation. Total protein quantification BCA (Pierce) was performed prior to MS analysis to normalize sample data. Total and fractionated cell lysates were analysed by quantitative UPLC-MS utilizing a Waters Xevo TQ-XS (WBA0259) and an Acquity UPLC system from Waters consisting of Sample Manager (M16UFL953M), Acquity PDA (F17UPD457A), Column Oven (E17CMP703G) and Binary Solvent Manager (E17BUR621G). […] Chromatograms of the samples were treated similarly, and by linear regression (1/x) an in-cell concentration was established in the re-suspended cell lysate using the Waters MassLynx TargetLynx^TM product.

[2] = system: primary juvenile (P5–P6) rat cardiomyocytes; assay: Cell cycle activity assay (Ki67/αActinin) in juvenile rat cardiomyocytes; type: cell-based
Procedure: One day after seeding, the cells were treated with test compounds of interest. Treatments were applied with an ECHO 520 acoustic dispenser (Labcyte) and medium was added to the wells. Four days after treatment, the cells were fixed with 4% formaldehyde (Roth) and immunostained in 0.2% Triton-X100 (Roth) in PBS (Gibco) supplemented with 5% FBS. […] Samples were then imaged and analysed on an ImageXpress XL automated microscope (Molecular Devices). Data are depicted as means ± SEM.

RKO cells [3] = assay: Total drug content in RKO cells by UPLC-MS; settings: 25 µM compound
Procedure: as §1

RKO cells [4] = assay: Wound closure assay; type: cell-based; settings: c = 30 µM, 48 h treatment
Procedure: Ca. 100,000 RKO cells were seeded per well in a transparent ImageLock 96-well plate (#4379, Essen Bioscience) and treated with the samples the next day. Wound Healing Assay was performed using the IncuCyte® ZOOM system and the WoundMaker™ device (both Essen Bioscience). The scratch was performed according to manufacturer’s protocol and images were acquired every 2 h. Image-based analysis of wound closure was conducted using the IncuCyte ZOOM 2016B software (Essen Bioscience). Confluency within the wound area was normalized to the confluency at the time of scratch preparation and plotted using GraphPad Prism 6.

rat heart cells = assay: Cell toxicity assessment on rat heart cells in culture; settings: c(peptide) = 10 µM
Procedure: whole heart cells monitored by fluorescence microscopy after 90 minutes treatments (scale bar: 25 µm), number of […]
4E as well as control compounds (SB203580, CHIR99021) on rat heart cells in culture (c(peptide) = 10 µM). Number of independent biological replicates: n = 6, error bars = SEM. […]
cytometry analysis of live cells after 90 min incubation at 5 µM: Representative histogram plot, (-) DMSO control). Source data are provided as a Source Data file.
(1 picture or pasted object on this page, not shown here)

GST-hTEAD1 = biological target: T1, GST-hTEAD1 (Homo sapiens, UniProt P28347); assay: SPR binding to immobilised GST-hTEAD1; settings: GST-hTEAD1 amine-coupled on CM5, multi-cycle, steady-state fit 1:1 model, 10 mM HEPES 150 mM NaCl 0.05% Tween-20 pH 7.4, 0.3% DMSO, 20 °C, Fig. 1 values n = 1 replicate
T1 construct: CDNA of hTEAD1(209–426) fused with an N-terminal GST tag; made in house; host or cells: Escherichia coli BL21 DE3 RIL(K+)
T1 sequence (P28347 209-426): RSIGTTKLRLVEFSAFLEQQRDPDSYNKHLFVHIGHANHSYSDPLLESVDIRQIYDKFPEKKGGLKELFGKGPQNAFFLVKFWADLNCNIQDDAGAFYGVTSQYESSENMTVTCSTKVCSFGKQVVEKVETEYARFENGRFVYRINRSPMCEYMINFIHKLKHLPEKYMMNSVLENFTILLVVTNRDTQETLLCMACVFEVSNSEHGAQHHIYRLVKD
Procedure: Sensor chips Series S CM5 (Research grade) were obtained from GE Healthcare. Prior to use, the sensor chips were equilibrated at room temperature for 15 min to prevent water condensation on the detector side of the sensor chip surface. A running buffer was prepared composed of 10 mM HEPES, 150 mM NaCl, and 0.05% (w/v) Tween-20, pH 7.4, and the system was equilibrated at 20 °C using a flow rate of 30 µL min^−1 after docking of the sensor chip. Ligand binding experiments have been performed applying the concept of multi-cycle kinetics. A contact time of 45 s was selected, followed by a 6-min dissociation phase to allow for complete dissociation of the analyte prior to the next cycle. […] Typically, seven concentrations of the analytes have been examined applying a threefold dilution pattern with 30 µM as top concentration. For the analysis, five running buffer blanks were injected to equilibrate the instrument. […] The carboxyl-dextran surface was activated for 7 min with 0.05 M NHS and 0.2 M EDC, followed by an injection of the proteins in 10 mM MES pH 6.4 at a concentration of 30–50 µg mL^−1. […] This was followed by a deactivation of the residual esters by injecting a solution of 0.5 M ethanolamine pH 8.0 for 7 min before engaging in ligand binding experiments. Reference surfaces were prepared accordingly, omitting the injection of protein over the activated reference surface.

[5] = 90 minutes, fractionation, UPLC-MS
[6] = 24 hours, fractionation, UPLC-MS

For `CC[C@H](C)[C@@H]1NC(=O)[C@H](CCC(N)=O)NC(=O)[C@H](CC(C)C)NC(=O)[C@H](Cc2c[nH]c3ccccc23)NC(=O)[C@H]([C@@H](C)O)NC(=O)[C@H](CC(=O)O)NC(=O)CNC(=O)[C@H](CC(C)C)NC(=O)[C@H](C)NC(=O)[C@H](CCCCN)NC(=O)[C@H](C)NC(=O)[C@H](Cc2ccccc2)NC(=O)[C@H](Cc2c[nH]cn2)NC(=O)[C@H](CC(=O)O)NC(=O)[C@@H](NC(=O)[C@@H](NC(=O)[C@H](CO)NC(C)=O)C(C)C)CCC(=O)NCCCC[C@@H](C(=O)N[C@@H](C)C(=O)N[C@@H](C)C(N)=O)NC1=O` [4E] (Ac-SVEDHFAKALGDTWLQIKAA-NH2; lactam 3-18), which “Effect on YAP–TEAD complexes (PLA)” value (YAP–TEAD interaction) is on record?
Its value is “only shows a small change in PLA events”.

And the “Sub-cellular drug content, Cytoplasm, Measured concentration” value (RKO cells [1]; [5])?
Its value is “< LLOQ”.

What about the “Sub-cellular drug content, Cytoplasm, nMol” value (RKO cells [1]; [5]) of the same compound?
Its value is “< LLOQ”.

What about the “Sub-cellular drug content, Nuclear, Measured concentration” value (RKO cells [1]; [5]) of the same compound?
Its value is “< LLOQ”.

And the “Sub-cellular drug content, Nuclear, nMol” value (RKO cells [1]; [5])?
Its value is “< LLOQ”.

What about the “Sub-cellular drug content, Cytoplasm, pMol.mg-1” value (RKO cells [1]; [5]) of the same compound?
Its value is “< LLOQ”.

What about the “Sub-cellular drug content, Nuclear, pMol.mg-1” value (RKO cells [1]; [5]) of the same compound?
The value was “< LLOQ”.

What about the “Sub-cellular drug content, Cytoplasm, Measured concentration” value (RKO cells [1]; [6]) of the same compound?
Its value is “< LLOQ”.

What about the “Sub-cellular drug content, Cytoplasm, nMol” value (RKO cells [1]; [6]) of the same compound?
The value was “< LLOQ”.

And the “Sub-cellular drug content, Nuclear, Measured concentration” value (RKO cells [1]; [6])?
The value was “< LLOQ”.

What about the “Sub-cellular drug content, Nuclear, nMol” value (RKO cells [1]; [6]) of the same compound?
The value was “< LLOQ”.

And the “Sub-cellular drug content, Cytoplasm, pMol.mg-1” value (RKO cells [1]; [6])?
The value was “< LLOQ”.

What about the “Sub-cellular drug content, Nuclear, pMol.mg-1” value (RKO cells [1]; [6]) of the same compound?
Its value is “< LLOQ”.

And the “Cytoplasmic concentration of peptide” value (RKO cells [1]; UPLC-MS, raw data replicate 1)?
The value was “<LLOQ”.

And the “Cytoplasmic concentration of peptide” value (RKO cells [1]; UPLC-MS, raw data replicate 2)?
Its value is “<LLOQ”.

And the “Nuclear concentration of peptide” value (RKO cells [1]; UPLC-MS, raw data replicate 1)?
The value was “<LLOQ”.

And the “Nuclear concentration of peptide” value (RKO cells [1]; UPLC-MS, raw data replicate 2)?
The value was “<LLOQ”.

What about the “Cytoplasmic concentration, raw data” value (RKO cells [1]; UPLC-MS, replicate 1) of the same compound?
The value was “<LLOQ”.

What about the “Nuclear concentration, raw data” value (RKO cells [1]; UPLC-MS, replicate 1) of the same compound?
The value was “<LLOQ”.

And the “Cytoplasmic concentration, raw data” value (RKO cells [1]; UPLC-MS, replicate 2)?
The value was “<LLOQ”.

What about the “Nuclear concentration, raw data” value (RKO cells [1]; UPLC-MS, replicate 2) of the same compound?
The value was “<LLOQ”.

What about the “Detection in cytoplasmic and nuclear fractions” value (RKO cells [1]; unlabelled peptide 25 µM, 90 min and 24 h, fractionation, UPLC-MS) of the same compound?
The value was “not detected in subcellular fractions”.

What about the Intracellular concentration (RKO cells [1]; unlabelled peptide 25 µM, 90 min incubation, n = 2 biological replicates) of the same compound?
Its Intracellular concentration is “< LLOQ”.

And the Intracellular concentration (RKO cells [1]; unlabelled peptide 25 µM, 24 hours incubation, N = 2 biological replicates)?
Its Intracellular concentration is “< LLOQ”.

What about the “Effect on cardiomyocyte cell cycle activity” value ([2]; P5–P6 rat heart cells, 4-days incubation, Ki67/αActinin double-positive cells) of the same compound?
Its value is “has no effect”.

And the “Cell cycle activity, MEAN” value ([2]; c = 10 µM, 4 days, relative to DMSO-treated cells (100), mean of N = 6)?
The value was 92.7542.

And the “Total drug content, Measured Concentration” value (RKO cells [3]; 24 hours, RIPA total lysis, UPLC-MS, diluted lysate, n = 2)?
Its value is “< LLOQ”.

What about the “Total drug content, nMol” value (RKO cells [3]; 24 hours, total lysis, UPLC-MS, n = 2) of the same compound?
The value was “< LLOQ”.

And the “Total drug content, pMol.mg-1” value (RKO cells [3]; 24 hours, total lysis, UPLC-MS, normalised to BCA protein, n = 2)?
The value was “< LLOQ”.

What about the “pMol/mg of protein, Mean” value (RKO cells [3]; total drug content, 90 minutes, mean of 2 replicates) of the same compound?
Its value is 424.4 pMol/mg of protein.

What about the “Effect on wound closure” value (RKO cells [4]) of the same compound?
The value was “no effect”.

And the “Total cell number (% DMSO control)” value (rat heart cells; raw data replicate 1)?
Its value is 98.8636 % DMSO control.

And the “Total cell number (% DMSO control)” value (rat heart cells; raw data replicate 2)?
The value was 123.588 % DMSO control.

What about the “Total cell number (% DMSO control)” value (rat heart cells; raw data replicate 3) of the same compound?
The value was 109.739 % DMSO control.

What about the “Total cell number (% DMSO control)” value (rat heart cells; raw data replicate 4) of the same compound?
Its value is 95.1959 % DMSO control.

And the “Total cell number (% DMSO control)” value (rat heart cells; raw data replicate 5)?
The value was 66.1379 % DMSO control.

What about the “Total cell number (% DMSO control)” value (rat heart cells; raw data replicate 6) of the same compound?
The value was 63.0015 % DMSO control.

And the Kd (GST-hTEAD1)?
The Kd was 700 nM.
